In article PMC5418449, “Characterisation of CCT271850, a selective, oral and potent MPS1 inhibitor, used to directly measure in vivo MPS1 inhibition vs therapeutic efficacy” (British Journal of Cancer, 2017):

Legend:
Parameters in all cases: 14-day clonogenic growth inhibition assay, human cancer cell line panel
Conditions in all cases: 14-day clonogenic assay; inhibitor; read-out: Table S1. IC50 of CCT271850 determined by MTT and clonogenic assays (CA). / All cell lines were tested at least 2 times. / 14-day CA
PATU-8988S = system: PATU-8988S
Method: (§1) To evaluate CCT271850 antiproliferation effects in a large panel of human cancer cell lines, 91 cell lines were treated for 72 h and 14 days at different compound concentrations in growth inhibition assays. The growth inhibition values as measured by IC50 are summarised in Table 2 and Supplementary Table S1. […] Cell lines from colon and head and neck cancers were among the most sensitive.

TYK-Nu = system: TYK-Nu
Method: as §1

EF021 = system: EF021
Method: as §1

PANC-1 = system: PANC-1
Method: as §1

OAW28 = system: OAW28
Method: as §1

Lon-HN5 = system: Lon-HN5
Method: as §1

IGROV1 = system: IGROV1
Method: as §1

SW626 = system: SW626
Method: as §1

CaoV3 = system: CaoV3
Method: as §1

TOV21G = system: TOV21G
Method: as §1

011B = system: 011B
Method: as §1

PT45 = system: PT45
Method: as §1

OVCAR8 = system: OVCAR8
Method: as §1

PATU-8902 = system: PATU-8902
Method: as §1

PJ41 = system: PJ41
Method: as §1

Kuramochi = system: Kuramochi
Method: as §1

OAW42 = system: OAW42
Method: as §1

PJ34 = system: PJ34
Method: as §1

A2780 = system: A2780
Method: as §1

CAL27 = system: CAL27
Method: as §1

O13 = system: O13
Method: as §1

Suit-2 = system: Suit-2
Method: as §1

Miapaca-2 = system: Miapaca-2
Method: as §1

OVCAR4 = system: OVCAR4
Method: as §1

CFPAC-1 = system: CFPAC-1
Method: as §1

OVCAR5 = system: OVCAR5
Method: as §1

EF027 = system: EF027
Method: as §1

PATU-8988T = system: PATU-8988T
Method: as §1

005B = system: 005B
Method: as §1

SKOV3 = system: SKOV3
Method: as §1

HN3 = system: HN3
Method: as §1

Det562 = system: Det562
Method: as §1

RMG1 = system: RMG1
Method: as §1

015B = system: 015B
Method: as §1

011A = system: 011A
Method: as §1

OVCAR3 = system: OVCAR3
Method: as §1

Question: For `COc1cc(-c2cnn(C)c2)ccc1Nc1ncc2ccnc(N[C@@H](C)C(C)(C)C)c2n1` [34h, CCT271850], which IC50 (PATU-8988S) is on record?
Answer: 110 nM

Question: What about the IC50 (TYK-Nu) of the same compound?
Answer: 73 nM

Question: What about the IC50 (EF021) of the same compound?
Answer: 72 nM

Question: What about the IC50 (PANC-1) of the same compound?
Answer: 74 nM

Question: What about the IC50 (OAW28) of the same compound?
Answer: 61 nM

Question: And the IC50 (Lon-HN5)?
Answer: 44 nM

Question: And the IC50 (IGROV1)?
Answer: 48 nM

Question: What about the IC50 (SW626) of the same compound?
Answer: 32 nM

Question: What about the IC50 (CaoV3) of the same compound?
Answer: 75 nM

Question: What about the IC50 (TOV21G) of the same compound?
Answer: 7.8 nM

Question: What about the IC50 (011B) of the same compound?
Answer: 21 nM

Question: And the IC50 (PT45)?
Answer: 59 nM

Question: And the IC50 (OVCAR8)?
Answer: 101 nM

Question: And the IC50 (PATU-8902)?
Answer: 28 nM

Question: What about the IC50 (PJ41) of the same compound?
Answer: 0.8 nM

Question: What about the IC50 (Kuramochi) of the same compound?
Answer: 34 nM

Question: What about the IC50 (OAW42) of the same compound?
Answer: 57 nM

Question: And the IC50 (PJ34)?
Answer: 35 nM

Question: What about the IC50 (A2780) of the same compound?
Answer: 105 nM

Question: What about the IC50 (CAL27) of the same compound?
Answer: 4 nM

Question: And the IC50 (O13)?
Answer: 21 nM

Question: And the IC50 (Suit-2)?
Answer: 87 nM

Question: And the IC50 (Miapaca-2)?
Answer: 68 nM

Question: What about the IC50 (OVCAR4) of the same compound?
Answer: 62 nM

Question: What about the IC50 (CFPAC-1) of the same compound?
Answer: 63 nM

Question: What about the IC50 (OVCAR5) of the same compound?
Answer: 82 nM

Question: And the IC50 (EF027)?
Answer: 37 nM

Question: And the IC50 (PATU-8988T)?
Answer: 87 nM

Question: What about the IC50 (005B) of the same compound?
Answer: 45 nM

Question: And the IC50 (SKOV3)?
Answer: 58 nM

Question: What about the IC50 (HN3) of the same compound?
Answer: 5.2 nM

Question: And the IC50 (Det562)?
Answer: 46 nM

Question: And the IC50 (RMG1)?
Answer: 42 nM

Question: And the IC50 (015B)?
Answer: 59 nM

Question: And the IC50 (011A)?
Answer: 20 nM

Question: What about the IC50 (OVCAR3) of the same compound?
Answer: 99 nM
